Consider 4 compounds from patent US11129820B2, “Ferroportin-inhibitor salts” (Vifor (International) AG, priority 2017, dated 2021).

The test system of data set [1] is beta2-microglobulin deficient (b2m−/−) mice. Nature of the data set: Correction of hyperferremia in beta2-microglobulin deficient mice. Conditions: for Serum Iron Reduction (%): 60 mg/kg oral, 3 hours (##). It counts as in vivo, mouse. How it is done:
Female and male homozygous b2m−/− mice are supplied from Jackson Laboratories (B6.129P2-B2mtm1Unc/J, Stock Number: 002087) at age of 6 to 7 weeks and fed standard diet (Harlan Provimi Kliba 3436) ad libitum. Age and gender matched WT C57BL/6 mice are supplied by Charles River. To study the acute effects of ferroportin (Fpn) inhibitors in iron overload b2m−/− mice are treated with compounds or the corresponding amount of vehicle at a volume of 10 ml/kg body weight. Fpn inhibitor compounds are formulated in 0.5% methylcellulose/water or 20% cremophor EL/water and dosed p.o. in mice at 50 mg/kg body weight. WT controls received only vehicle. Three hours later, mice are pre-terminally anesthetized in isoflurane chambers and blood is collected by retro-orbital bleeding. Mice are sacrificed by cervical dislocation and spleens, livers and duodena are harvested and used for biomarker analysis. All experiments are performed in compliance with license approved by the responsible veterinarian authorities. Serum is isolated by centrifugation of blood into gel-containing microtainers (BD Biosciences) and serum iron is determined by the MULTIGENT Iron assay (Abbott Diagnostics, Cat. 6K95). Four to nine mice per group are used and one-way ANOVA with Bonferroni's multiple comparison test is applied to analyze the statistical differences between the experimental groups.
Blood is collected 1 (#) or 3 (##) hours after oral administration of the indicated doses of Fpn inhibitors to beta2-microglobulin deficient mice and serum iron concentrations are measured. Relative reduction (%) of serum iron levels are shown, which were calculated by subtracting the average of serum iron values of animals dosed with the Fpn inhibitor from that of vehicle-treated animals. The difference in average serum iron values between vehicle and compound treated groups was then divided by the average of serum iron of the vehicle control group and listed as percentage. Values are listed separately for female (♀) and male (♂) animals, because a marked sex-dependent difference in efficacy was noted. Statistically significant (2-way ANOVA with Bonferroni post test) differences observed between compound-treated and vehicle-treated groups are indicated (*** p<0.001; ** p<0.01, p<0.05).

Data set [2] in a line: Approximate solubility of the starting compound in solvents and solvent mixtures. It is filed as physicochemical. Particulars: thermodynamic from solid. How it is done:
Approximate solubilities were determined by incremental addition of solvent to about 10 mg the compound. […] Due to the experimental error inherent in this method, the solubility values are intended to be regarded as rough estimates and are to be used solely for the design of crystallization experiments.
Approximate solubilities were determined by incremental addition of solvent to about 10 mg of the compound. […] Due to the experimental error inherent in this method, the solubility values were regarded as rough estimates and were only used for the design of crystallization experiments.
The approximate solubility of SP236-FB-P1 was determined in a number of different solvents and solvent mixtures to help guide the salt/co-crystal experiments.

Another data set has as its target T1, ferroportin (Fpn) (Mus musculus, UniProt Q9JHI9).
T1 construct: endogenous in cells; host or cells: J774 mouse macrophage cell line (DSMZ, Cat. ACC170), induced with 200 uM Fe(III)-NTA
T1 sequence (Q9JHI9 1-570): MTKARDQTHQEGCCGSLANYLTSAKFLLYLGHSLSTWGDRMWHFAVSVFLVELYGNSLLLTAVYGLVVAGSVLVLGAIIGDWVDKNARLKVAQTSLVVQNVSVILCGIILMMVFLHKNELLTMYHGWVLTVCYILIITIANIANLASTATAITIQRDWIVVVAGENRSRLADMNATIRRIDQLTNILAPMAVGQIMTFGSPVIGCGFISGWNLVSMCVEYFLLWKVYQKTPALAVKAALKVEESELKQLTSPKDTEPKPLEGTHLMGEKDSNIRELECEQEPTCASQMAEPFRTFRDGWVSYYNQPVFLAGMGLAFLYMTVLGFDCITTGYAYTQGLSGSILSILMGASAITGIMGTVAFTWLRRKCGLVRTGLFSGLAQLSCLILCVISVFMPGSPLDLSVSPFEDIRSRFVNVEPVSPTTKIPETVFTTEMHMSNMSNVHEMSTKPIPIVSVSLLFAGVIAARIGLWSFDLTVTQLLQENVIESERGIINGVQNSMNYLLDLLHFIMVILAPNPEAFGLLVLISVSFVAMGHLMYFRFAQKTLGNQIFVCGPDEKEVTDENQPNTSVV
Nature of the data set: Ferroportin Ubiquitination and Degradation (J774, immunoprecipitation, Western blot). It is filed as cell-based. Set-up: key: +: comparable to hepcidin; −: no effect; +/−: intermediate effect. Conditions: J774 cells, ca. 10-fold IC50 concentration, visual inspection of Western blots. How it is done: Exposure of cells expressing ferroportin (Fpn) to hepcidin is known to trigger ubiquitination and subsequent internalization and degradation of Fpn (Qiao, 2012). The potential of Fpn inhibitors to induce Fpn ubiquitination and degradation is investigated with an immunoprecipitation assay using the J774 mouse macrophage cell line which expresses Fpn upon treatment with iron.
Cells are incubated with synthetic human hepcidin (Bachem, Cat. H-5926) or Fpn inhibitor compounds for 10 min or 120 min. Cells are washed and lysed with ice-cold lysis buffer (Pierce, Life Technoligies, Cat. 87787) including 1×HALT protease inhibitor cocktail (Life technologies, Cat. 78429) and 10 mM iodoacetamide (Sigma, Cat. 16125) to stabilize ubiquitinated proteins. Immunoprecipitation is done using the Pierce Classic IP Kit (Life Technologies, Cat. 26146) following the manufacturer's protocol. Briefly, 2 mg protein in 1.25 ml IP lysis buffer is incubated by mixing for 1 h at 4° C. with control agarose beads to pre-clear the lysate and reduce nonspecific signal. Unbound lysate is then incubated overnight with 12 μg per reaction of the affinity purified anti-Fpn antibody F308 that was raised against a GST fusion protein of mouse Fpn amino acids 224-308. Immune complexes are captured by pipetting 14 μl settled Pierce Protein A/G Plus Agarose beads (Life Technologies, Cat. 20423) per reaction and the slurry is incubated for 1.5 h at 4° C. with gentle end-over-end mixing. The beads are washed and immune complexes are eluted directly with 75 μl SDS NuPAGE LDS sample buffer (Life Technologies, Cat. NP0007) containing DTT (Life Technologies, Cat. NP0009).
After immunoprecipitation samples are analyzed by Western blotting using a rabbit anti-mouse MTP1 antiserum (Alpha Diagnostic International, Cat. MTP11-A) and a mouse anti-mono- and polyubiquitinylated conjugates monoclonal antibody (Enzo Lifesciences, Cat. BML-PW8810) for detection of ferroportin and ubiquitin, respectively. Mouse monoclonal anti-rabbit IgG light chain (Abcam, Cat. ab99697) and anti-mouse IgG H&L (Abcam, Cat. ab6789) HRP conjugates are used as secondary antibodies.
A general note: Immunoblotting shows a protein as a band on a membrane.

A further data set concerns Hbb th3/+ mice. Nature of the data set: Mouse model of β-thalassemia intermedia (Hbb th3/+ mice). It is filed as in vivo. Particulars: for Decrease in RDW by 20/60 mg/kg compound / Decrease in serum iron by 20/60 mg/kg compound: % change to vehicle; for Correction of anemia at day 20-48 by 20/60 mg/kg: hemoglobin difference to vehicle; for Decrease in serum iron by 20/60 mg/kg compound: dosed for 3 h. How it is done: The efficacy of Fpn inhibitors is investigated using a mouse model of transfusion-independent β-thalassemia. Mice with heterozygous deletion of β 1 and β 2 globin genes (called Hbb th3/+ mice) develop transfusion-independent anemia, ineffective erythropoiesis, splenomegaly and secondary iron overload in spleen, liver and kidneys. […] Hbb th3/+ mice are dosed twice daily with either compound at 20 or 60 mg/kg or with methylcellulose (10 ml/kg, Sigma, Cat. 274429) as a vehicle. Between both doses mice have access to drinking water supplemented with 1 mM ^58Fe(II)-sulfate (Vifor Pharma, Batch No. ROR 3096) and 10 mM ascorbic acid (Sigma, Cat. 795437) for 6 h. The concentration of ^58Fe(II)-Sulfate supplied in the drinking water is adjusted to substitute for intake of standard rodent diet with iron content of 250 ppm. Water without ^58Fe(II)-Sulfate and ascorbic acid is provided during the remaining 18 h. Dosing of Fpn inhibitors or vehicle followed by exposure to iron-containing water is repeated for 20 to 46 days in individual experiments.
Additional hematologic parameters are measured in terminal blood using automated blood cell analyzer.
The inefficient erythropoiesis of Hbb th3/+ mice causes excessive proliferation of erythroid precursors in spleen, leading to splenomegaly.
Elevated erythropoietin levels in Hbb th3/+ mice induce overexpression of erythroferrone, an erythroid regulator hormone known to suppress hepcidin (Kautz L. et al, Nat. Genet., 2014). […] Erythroferrone is produced by erythrocyte precursors proliferating massively in spleens of Hbb th3/+ mice as a consequence of extramedullar erythropoiesis.
Increased iron demand due to inefficient erythropoiesis and chronically low hepcidin levels in patients with thalassemia causes organ iron loading and associated morbidities, such as hepatocellular carcinoma and heart failure (Rivella S. Haematologica, 2015). Hbb th3/+ mice absorb excessive amounts of iron as a consequence of inadequately low hepcidin levels relative to the high iron content in liver, spleen and kidney and increased ferroportin expression in duodenum (Gardenghi S., Blood, 2007).
Additionally, reactive oxygen species (ROS) are detected in bone marrow cells using a fluorescent indicator, CM-H2DCFDA (Thermo Fisher Scientific, Cat. C6827).
Data are expressed as difference to the vehicle control group for hemoglobin and as % change to the vehicle control group for all other parameter shown

≈ marks a conversion by molar mass, not a printed value.

Turning to `O=C(NCc1ncccc1F)c1csc(CCNCCc2nc3ccccc3[nH]2)n1` [Example Compound No. 94], the “Correction of elevated serum iron, in words” value in data set [1] (b2m−/− mice, 50 mg/kg p.o., 3 h) is “corrected the elevated serum iron to the levels observed in WT controls”. In addition, the “Serum Iron Reduction (%)” value in data set [1] (female ♀) stood at 47%; in data set [1] (male ♂), 67%.

Broadly, the solubility is the dissolved amount per volume that the medium holds. In the case of `O=C(NCc1ncccc1F)c1coc(CCNCCc2nc3ccccc3[nH]2)n1` [SP236-FB-P1], the solubility in data set [2] (aqueous with cosolvent or surfactant or cyclodextrin, 2-propanol-water 1:3) was 39 to 47 mg/mL (≈ 95.5 to 115 mM); in data set [2] (aqueous with cosolvent or surfactant or cyclodextrin, Methanol-water 1:1), over 100 mg/mL; in data set [2] (organic solvent or mixture, 2-Propanol), 80 to 120 mg/mL (≈ 196 to 294 mM); in data set [2] (organic solvent or mixture, Acetonitrile) it was over 200 mg/mL; in data set [2] (organic solvent or mixture, DMSO) it was over 100 mg/mL; in data set [2] (organic solvent or mixture, Dioxane), over 100 mg/mL. Besides, the solubility is over 100 mg/mL in data set [2] (organic solvent or mixture, Ethanol); over 100 mg/mL in data set [2] (organic solvent or mixture, Ethyl acetate); 5 to 7 mg/mL (≈ 12.2 to 17.1 mM) in data set [2] (organic solvent or mixture, Ethyl acetate-cyclohexane 3:1); under 1 mg/mL in data set [2] (organic solvent or mixture, Heptane); over 200 mg/mL in data set [2] (organic solvent or mixture, Methanol); over 200 mg/mL in data set [2] (organic solvent or mixture, THF). For the same compound, the solubility in data set [2] (organic solvent or mixture, THF-heptane 3:1) is over 200 mg/mL; in data set [2] (Water), about 15 mg/mL (≈ 36.7 mM).

On to `O=C(NCc1ncccc1F)c1coc(CCNCc2nc3ccccc3[nH]2)n1` [Example Compound No. 126], for which, on ferroportin (Fpn), the “Fpn Degradation (120 min.)” value was “+” and the “Fpn Ubiquitination (10 min.)” value is on record as “+/−”.

With `O=C(NCc1ncccc1F)c1coc(CCNCCc2nc3ccccc3[nH]2)n1` [Example Compound No. 127], the “Decrease in RDW by 20/60 mg/kg compound” value in the data set with Hbb th3/+ mice (20 mg/kg twice daily for 20-46 days) amounted to 19%; in the data set on Hbb th3/+ mice (60 mg/kg twice daily for 20-46 days) it was 25%. Further, the figures for the “Correction of anemia at day 20-48 by 20/60 mg/kg” value in the data set on Hbb th3/+ mice (20 mg/kg twice daily) and with Hbb th3/+ mice (60 mg/kg twice daily) were 12 g/L and 20 g/L, respectively. Moreover, the “Decrease in serum iron by 20/60 mg/kg compound” value with Hbb th3/+ mice (20 mg/kg) is 68%; in the data set with Hbb th3/+ mice (60 mg/kg), 81%.
